Source: paper PMC3386426 (Journal of Medicinal Chemistry, 2012)
Read-outs that look alike come from different tables or passages of the source.

Assays:
[1] = chemical reactivity/stability under acidic, basic and nucleophilic conditions; format: physicochemical
[2] = tested on: L1210 murine leukemia cell line; assay: cell growth inhibition in a cytotoxic assay with L1210; format: cell-based
[3] = tested on: L1210 murine leukemia cell line; conditions: natural enantiomer; cited from earlier work
[4] = tested on: L1210 murine leukemia cells; assay: in vivo antitumor model, L1210 cells implanted ip into mice
DNA = DNA alkylation in cell-free systems; format: biochemical
[5] = human plasma
[6] = tested on: L1210 murine leukemia cells; conditions: previously established; cited from earlier work

SMILES: CC(C)(C)OC(=O)N1C[C@@H](CCl)c2c1cc1c3c(cccc23)NC(=O)O1 [Compound 16, tert-Butyl 10-(Chloromethyl)-5-oxo-9,10-dihydro-4H-pyrrolo[3',2':5,6]naphtho[1,8-de][1,3]oxazine-8(5H)-carboxylate]
- stability of cyclic carbamate to hydrolysis under acidic conditions ([1]; 1:1 TFA:CH2Cl2, 4 N HCl in EtOAc, 48 h at 23 °C): stable
- stability to nucleophiles BnSH and BnOH ([1]; 100 equiv in MeOH and THF at 23 °C for 48 h): completely stable
- stability to BnNH2 in MeOH ([1]; BnNH2 (100 equiv) in MeOH, 24 h): rapidly cleaved
- stability to BnNH2 in THF ([1]; BnNH2 in THF): stable
- hydrolysis of cyclic carbamate with NaHCO3 ([1]; NaHCO3 in protic solvents): slowly hydrolyzed
- stability to organic bases ([1]; organic bases in aprotic solvents): stable
- fold less active than N-Boc-CBI ([2]; L1210, relative to N-Boc-CBI): 50–100 fold

SMILES: CC(C)(C)OC(=O)N1C[C@H]2C[C@@]23C1=CC(=O)c1ccccc13 [N-Boc-CBI]
- IC50 [3]: 80 nM

SMILES: Nc1cccc2c1C(=O)C=C1N(C(=O)c3cc4cc(NC(=O)c5cc6ccccc6[nH]5)ccc4[nH]3)CC3CC123 (racemic) [(±)-20, N-(2-(5-Amino-4-oxo-1,2,9,9a-tetrahydrocyclopropa[c]benzo[e]indole-2-carbonyl)-1H-indol-5-yl)-1H-indole-2-carboxamide]
- fold less active than 4 (active enantiomer of 20) ([2]; L1210, inferred for the active enantiomer from the racemate): 3–4 fold

SMILES: O=C1Nc2cccc3c4c(cc(c23)O1)N(C(=O)c1cc2cc(NC(=O)c3cc5ccccc5[nH]3)ccc2[nH]1)CC4CCl (single isomer, unassigned; (+)) [(+)-6, N-(2-(10-(Chloromethyl)-5-oxo-5,8,9,10-tetrahydro-4H-pyrrolo[3',2':5,6]naphtho[1,8-de][1,3]oxazine-8-carbonyl)-1H-indol-5-yl)-1H-indole-2-carboxamide]
- long term cures (>250 days) ([4]; 9000 μg/kg ip on days 1, 5, 9): 5/10
- antitumor activity over dose range ([4]; 300 to 9000 μg/kg ip on days 1, 5, 9 (30-fold range)): productive antitumor activity over the entire and much larger dose range examined

SMILES: O=C1Nc2cccc3c4c(cc(c23)O1)N(C(=O)c1cc2cc(NC(=O)c3cc5ccccc5[nH]3)ccc2[nH]1)CC4CCl (centres unmarked) [Compound 6, N-(2-(10-(Chloromethyl)-5-oxo-5,8,9,10-tetrahydro-4H-pyrrolo[3',2':5,6]naphtho[1,8-de][1,3]oxazine-8-carbonyl)-1H-indol-5-yl)-1H-indole-2-carboxamide]
- stability under acidic conditions ([1]; 1:1 TFA:CH2Cl2, 4 N HCl in EtOAc, up to 72 h at 23 °C): stable
- DNA alkylation (DNA): incapable of alkylating DNA
- free drug release [5]: 5%
- times more potent than its N-Boc precursor 16 ([2]; L1210, relative to 16): 100 to 1000 times

SMILES: O=C(Nc1ccc2[nH]c(C(=O)N3C[C@H](CCl)c4c3cc(O)c3ccccc43)cc2c1)c1cc2ccccc2[nH]1 [Compound 4, seco-CBI-indole2]
- optimal dose range [6]: 0.06 to 0.1 mg/kg
- T/C (percent survival) ([4]; 60 μg/kg ip on days 1, 5, 9): 197
- long term (250 days) survivors ([4]; 60 μg/kg ip on days 1, 5, 9): 1/10
- toxicity (premature death of the animals) ([4]; doses of 100–500 μg/kg ip on days 1, 5, 9): toxic
- IC50 ([2]; Mus musculus, L1210, L1210 cell line): 0.03 nM
